From ChEMBL document CHEMBL3112509, “Synthesis and antimicrobial activity of (1,4-phenylene)bis(arylsulfonylpyrazoles and isoxazoles)” (2014)
Values after ≈ are worked out from the molar mass of the structure shown. Active and inactive are the calls of the source. The calls are words filed in the database; no cut-off is given here.

Columns and labels:
Format in all cases: functional
[1] = test system: Penicillium chrysogenum; assay: Antifungal activity against Penicillium chrysogenum after 48 hrs
[2] = test system: Aspergillus niger; assay: Antifungal activity against Aspergillus niger after 48 hrs
[3] = test system: Penicillium chrysogenum; assay: Antifungal activity against Penicillium chrysogenum after 48 hrs by broth dilution test
[4] = test system: Klebsiella pneumoniae; assay: Antibacterial activity against Klebsiella pneumoniae after 24 hrs
[5] = test system: Aspergillus niger; assay: Antifungal activity against Aspergillus niger after 48 hrs by broth dilution test
[6] = test system: Klebsiella pneumoniae; assay: Antibacterial activity against Klebsiella pneumoniae after 24 hrs by broth dilution test
[7] = test system: Pseudomonas aeruginosa; assay: Antibacterial activity against Pseudomonas aeruginosa after 24 hrs
[8] = test system: Bacillus subtilis; assay: Antibacterial activity against Bacillus subtilis after 24 hrs
[9] = test system: Pseudomonas aeruginosa; assay: Antibacterial activity against Pseudomonas aeruginosa after 24 hrs by broth dilution test
[10] = test system: Bacillus subtilis; assay: Antibacterial activity against Bacillus subtilis after 24 hrs by broth dilution test
[11] = test system: Staphylococcus aureus; assay: Antibacterial activity against Staphylococcus aureus after 24 hrs
[12] = test system: Staphylococcus aureus; assay: Antibacterial activity against Staphylococcus aureus after 24 hrs by broth dilution test
[13] = test system: Penicillium chrysogenum; assay: Antifungal activity against Penicillium chrysogenum at 100 ug/well after 48 hrs by agar well diffusion method; settings: read-out: DIZ
[14] = test system: Penicillium chrysogenum; assay: Antifungal activity against Penicillium chrysogenum at 50 ug/well after 48 hrs by agar well diffusion method; settings: read-out: DIZ
[15] = test system: Aspergillus niger; assay: Antifungal activity against Aspergillus niger at 50 ug/well after 48 hrs by agar well diffusion method; settings: read-out: DIZ
[16] = test system: Aspergillus niger; assay: Antifungal activity against Aspergillus niger at 100 ug/well after 48 hrs by agar well diffusion method; settings: read-out: DIZ
[17] = test system: Klebsiella pneumoniae; assay: Antibacterial activity against Klebsiella pneumoniae at 100 ug/well after 24 hrs by agar well diffusion method; settings: for zone of inhibition at 100 µg/disc: read-out: DIZ
[18] = test system: Klebsiella pneumoniae; assay: Antibacterial activity against Klebsiella pneumoniae at 50 ug/well after 24 hrs by agar well diffusion method; settings: for zone of inhibition at 50 µg/disc: read-out: DIZ
[19] = test system: Pseudomonas aeruginosa; assay: Antibacterial activity against Pseudomonas aeruginosa at 100 ug/well after 24 hrs by agar well diffusion method; settings: for zone of inhibition at 100 µg/disc: read-out: DIZ
[20] = test system: Pseudomonas aeruginosa; assay: Antibacterial activity against Pseudomonas aeruginosa at 50 ug/well after 24 hrs by agar well diffusion method; settings: for zone of inhibition at 50 µg/disc: read-out: DIZ
[21] = test system: Bacillus subtilis; assay: Antibacterial activity against Bacillus subtilis at 100 ug/well after 24 hrs by agar well diffusion method; settings: for zone of inhibition at 100 µg/disc: read-out: DIZ
[22] = test system: Bacillus subtilis; assay: Antibacterial activity against Bacillus subtilis at 50 ug/well after 24 hrs by agar well diffusion method; settings: for zone of inhibition at 50 µg/disc: read-out: DIZ
[23] = test system: Staphylococcus aureus; assay: Antibacterial activity against Staphylococcus aureus at 100 ug/well after 24 hrs by agar well diffusion method; settings: for zone of inhibition at 100 µg/disc: read-out: DIZ
[24] = test system: Staphylococcus aureus; assay: Antibacterial activity against Staphylococcus aureus at 50 ug/well after 24 hrs by agar well diffusion method; settings: for zone of inhibition at 50 µg/disc: read-out: DIZ

Structure (SMILES)	MFC [1]	MFC [2]	MIC [3]	MIC [5]	MIC [6]	MIC [9]	MIC [10]	MIC [12]	zone of inhibition at 100 µg/disc [13]	zone of inhibition at 50 µg/disc [14]	zone of inhibition at 50 µg/disc [15]	zone of inhibition at 100 µg/disc [16]	zone of inhibition at 100 µg/disc [17]	zone of inhibition at 50 µg/disc [18]	zone of inhibition at 100 µg/disc [19]	zone of inhibition at 50 µg/disc [20]	zone of inhibition at 100 µg/disc [21]	zone of inhibition at 50 µg/disc [22]	zone of inhibition at 100 µg/disc [23]	zone of inhibition at 50 µg/disc [24]	further results
O=S(=O)(c1ccccc1)c1c(-c2ccc(Cl)cc2)noc1-c1ccc(-c2onc(-c3ccc(Cl)cc3)c2S(=O)(=O)c2ccccc2)cc1	100 µg/mL (≈ 140 µM)	200 µg/mL (≈ 280 µM)	25 µg/mL (≈ 35 µM)	50 µg/mL (≈ 70.1 µM)	100 µg/mL (≈ 140 µM)	50 µg/mL (≈ 70.1 µM)	25 µg/mL (≈ 35 µM)	50 µg/mL (≈ 70.1 µM)	36 mm	34 mm	29 mm	31 mm	30 mm	28 mm	26 mm	24 mm	37 mm	35 mm	33 mm	31 mm	MBC [4]: > 200 µg/mL; MBC [7]: 200 µg/mL (≈ 280 µM); MBC [8]: 50 µg/mL (≈ 70.1 µM); MBC [11]: 200 µg/mL (≈ 280 µM)
O=S(=O)(c1ccc(Cl)cc1)c1c(-c2ccc(Cl)cc2)noc1-c1ccc(-c2onc(-c3ccc(Cl)cc3)c2S(=O)(=O)c2ccc(Cl)cc2)cc1	50 µg/mL (≈ 63.9 µM)	100 µg/mL (≈ 128 µM)	25 µg/mL (≈ 31.9 µM)	12.5 µg/mL (≈ 16 µM)	25 µg/mL (≈ 31.9 µM)	12.5 µg/mL (≈ 16 µM)	12.5 µg/mL (≈ 16 µM)	12.5 µg/mL (≈ 16 µM)	37 mm	35 mm	30 mm	33 mm	34 mm	32 mm	27 mm	25 mm	38 mm	35 mm	34 mm	32 mm	MBC [4]: 100 µg/mL (≈ 128 µM); MBC [7]: 50 µg/mL (≈ 63.9 µM); MBC [8]: 25 µg/mL (≈ 31.9 µM); MBC [11]: 50 µg/mL (≈ 63.9 µM)
CC(=O)N1CCN(c2ccc(OCC3COC(Cn4ccnc4)(c4ccc(Cl)cc4Cl)O3)cc2)CC1 (centres undefined) [KETOCONAZOLE]	–	–	12.5 µg/mL (≈ 23.5 µM)	6.25 µg/mL (≈ 11.8 µM)	–	–	–	–	38 mm	36 mm	33 mm	36 mm	–	–	–	–	–	–	–	–	–
O=S(=O)(c1ccc(Cl)cc1)C1C(c2ccc(Cl)cc2)=NN(c2ccccc2)C1c1ccc(C2C(S(=O)(=O)c3ccc(Cl)cc3)C(c3ccc(Cl)cc3)=NN2c2ccccc2)cc1 (centres undefined)	–	–	–	–	–	–	–	–	20 mm	18 mm	13 mm	15 mm	13 mm	10 mm	–	–	16 mm	13 mm	14 mm	11 mm	diameter of the inhibition zone (DIZ) [19]: inactive; diameter of the inhibition zone (DIZ) [20]: inactive
COc1ccc(C2=NOC(c3ccc(C4ON=C(c5ccc(OC)cc5)C4S(=O)(=O)c4ccccc4)cc3)C2S(=O)(=O)c2ccccc2)cc1 (centres undefined)	–	–	–	–	–	–	–	–	17 mm	14 mm	18 mm	20 mm	–	–	–	–	–	–	–	–	diameter of the inhibition zone (DIZ) [17]: inactive; diameter of the inhibition zone (DIZ) [18]: inactive; diameter of the inhibition zone (DIZ) [19]: inactive; diameter of the inhibition zone (DIZ) [20]: inactive; diameter of the inhibition zone (DIZ) [21]: inactive; diameter of the inhibition zone (DIZ) [22]: inactive; diameter of the inhibition zone (DIZ) [23]: inactive; diameter of the inhibition zone (DIZ) [24]: inactive
COc1ccc(C2=NOC(c3ccc(C4ON=C(c5ccc(OC)cc5)C4S(=O)(=O)c4ccc(C)cc4)cc3)C2S(=O)(=O)c2ccc(C)cc2)cc1 (centres undefined)	–	–	–	–	–	–	–	–	18 mm	15 mm	16 mm	19 mm	–	–	–	–	–	–	–	–	diameter of the inhibition zone (DIZ) [17]: inactive; diameter of the inhibition zone (DIZ) [18]: inactive; diameter of the inhibition zone (DIZ) [19]: inactive; diameter of the inhibition zone (DIZ) [20]: inactive; diameter of the inhibition zone (DIZ) [21]: inactive; diameter of the inhibition zone (DIZ) [22]: inactive; diameter of the inhibition zone (DIZ) [23]: inactive; diameter of the inhibition zone (DIZ) [24]: inactive
O=S(=O)(c1ccc(Cl)cc1)c1c(-c2ccc(Cl)cc2)nn(-c2ccccc2)c1-c1ccc(-c2c(S(=O)(=O)c3ccc(Cl)cc3)c(-c3ccc(Cl)cc3)nn2-c2ccccc2)cc1	> 100 µg/mL	> 200 µg/mL	25 µg/mL (≈ 26.8 µM)	50 µg/mL (≈ 53.6 µM)	100 µg/mL (≈ 107 µM)	50 µg/mL (≈ 53.6 µM)	50 µg/mL (≈ 53.6 µM)	50 µg/mL (≈ 53.6 µM)	31 mm	28 mm	34 mm	37 mm	27 mm	25 mm	22 mm	20 mm	34 mm	32 mm	31 mm	29 mm	MBC [4]: > 200 µg/mL; MBC [7]: > 200 µg/mL; MBC [8]: 200 µg/mL (≈ 214 µM); MBC [11]: > 200 µg/mL
Cc1ccc(S(=O)(=O)C2C(c3ccc(Cl)cc3)=NN(c3ccccc3)C2c2ccc(C3C(S(=O)(=O)c4ccc(C)cc4)C(c4ccc(Cl)cc4)=NN3c3ccccc3)cc2)cc1 (centres undefined)	–	–	–	–	–	–	–	–	16 mm	14 mm	12 mm	14 mm	10 mm	8 mm	–	–	13 mm	11 mm	11 mm	9 mm	diameter of the inhibition zone (DIZ) [19]: inactive; diameter of the inhibition zone (DIZ) [20]: inactive
Cc1ccc(S(=O)(=O)c2c(-c3ccc(Cl)cc3)noc2-c2ccc(-c3onc(-c4ccc(Cl)cc4)c3S(=O)(=O)c3ccc(C)cc3)cc2)cc1	100 µg/mL (≈ 135 µM)	> 200 µg/mL	25 µg/mL (≈ 33.7 µM)	50 µg/mL (≈ 67.4 µM)	100 µg/mL (≈ 135 µM)	50 µg/mL (≈ 67.4 µM)	25 µg/mL (≈ 33.7 µM)	50 µg/mL (≈ 67.4 µM)	34 mm	32 mm	28 mm	30 mm	28 mm	26 mm	24 mm	22 mm	36 mm	33 mm	32 mm	30 mm	MBC [4]: > 200 µg/mL; MBC [7]: > 200 µg/mL; MBC [8]: 100 µg/mL (≈ 135 µM); MBC [11]: 200 µg/mL (≈ 270 µM)
O=S(=O)(c1ccccc1)C1C(c2ccc(Cl)cc2)=NOC1c1ccc(C2ON=C(c3ccc(Cl)cc3)C2S(=O)(=O)c2ccccc2)cc1 (centres undefined)	–	–	–	–	–	–	–	–	22 mm	20 mm	15 mm	17 mm	13 mm	11 mm	12 mm	10 mm	20 mm	18 mm	16 mm	14 mm	–
O=C(N[C@H](CO)[C@H](O)c1ccc([N+](=O)[O-])cc1)C(Cl)Cl [CHLORAMPHENICOL]	–	–	–	–	12.5 µg/mL (≈ 38.7 µM)	6.25 µg/mL (≈ 19.3 µM)	6.25 µg/mL (≈ 19.3 µM)	6.25 µg/mL (≈ 19.3 µM)	–	–	–	–	42 mm	40 mm	30 mm	27 mm	38 mm	34 mm	35 mm	33 mm	–
